Assay results: ChEMBL document CHEMBL5252625, “Development of sulfonium tethered peptides conjugated with HDAC inhibitor to improve selective toxicity for cancer cells” (Bioorg Med Chem, 2023)
Active and inactive are the calls of the source. The calls are words filed in the database; no cut-off is given here. Non-standard residues stand in square brackets, D forms with d. Residues, ends and D or L forms follow the SMILES beside them. *: point of attachment. Ahx = NCCCCCC(=O)O; NHOH = ON*

Columns and labels:
[1] = system: Huh-7; test: Induction of apoptosis in human Huh-7 cells assessed as viable cells at 5 uM incubated for 24 hrs by FITC Annexin V/propidium iodide staining based flow cytometry analysis (reference value: 92.6%); assay type: functional; conditions: read-out: Activity
[2] = system: Huh-7; test: Induction of apoptosis in human Huh-7 cells assessed as early apoptotic cells at 5 uM incubated for 24 hrs by FITC Annexin V/propidium iodide staining based flow cytometry analysis (reference value: 1.85%); assay type: functional
[3] = system: Huh-7; test: Induction of apoptosis in human Huh-7 cells assessed as late apoptotic cells at 5 uM incubated for 24 hrs by FITC Annexin V/propidium iodide staining based flow cytometry analysis (reference value: 5.19%); assay type: functional
[4] = system: Huh-7; test: Induction of apoptosis in human Huh-7 cells assessed as necrotic cells at 5 uM incubated for 24 hrs by FITC Annexin V/propidium iodide staining based flow cytometry analysis (reference value: 0.401%); assay type: functional
[5] = system: Huh-7; test: Induction of cell cycle arrest in human Huh-7 cells assessed as accumulation of cells at sub G1 phase at 2.5 uM incubated for 24 hrs by FACscan flow cytometer analysis relative to control; assay type: functional
[6] = system: Huh-7; test: Induction of cell cycle arrest in human Huh-7 cells assessed as accumulation of cells at G1 phase at 2.5 uM incubated for 24 hrs by FACscan flow cytometer analysis (reference value: 39.68%); assay type: functional
[7] = system: Huh-7; test: Induction of cell cycle arrest in human Huh-7 cells assessed as accumulation of cells at S phase at 2.5 uM incubated for 24 hrs by FACscan flow cytometer analysis (reference value: 41.7%); assay type: functional
[8] = system: Huh-7; test: Induction of cell cycle arrest in human Huh-7 cells assessed as accumulation of cells at G2 phase at 2.5 uM incubated for 24 hrs by FACscan flow cytometer analysis (reference value: 25.74%); assay type: functional
[9] = molecular target: Histone deacetylase; test: Inhibition of HDAC in human HeLa cell extracts using Boc-Lys(Ac)-AM as substrate by fluorescence based analysis
[10] = Hemolytic activity in mouse erythrocytes assessed as hemolysis at 80 uM incubated for 1.5 hrs by microplate reader assay; assay type: toxicity, cell-based; conditions: erythrocyte
[11] = system: Huh-7; test: Induction of apoptosis in human Huh-7 cells assessed as viable cells at 10 uM incubated for 24 hrs by FITC Annexin V/propidium iodide staining based flow cytometry analysis (reference value: 92.6%); assay type: functional; conditions: read-out: Activity
[12] = system: Huh-7; test: Induction of apoptosis in human Huh-7 cells assessed as early apoptotic cells at 10 uM incubated for 24 hrs by FITC Annexin V/propidium iodide staining based flow cytometry analysis (reference value: 1.85%); assay type: functional
[13] = system: Huh-7; test: Induction of apoptosis in human Huh-7 cells assessed as late apoptotic cells at 10 uM incubated for 24 hrs by FITC Annexin V/propidium iodide staining based flow cytometry analysis (reference value: 5.19%); assay type: functional
[14] = system: Huh-7; test: Induction of apoptosis in human Huh-7 cells assessed as necrotic cells at 10 uM incubated for 24 hrs by FITC Annexin V/propidium iodide staining based flow cytometry analysis (reference value: 0.401%); assay type: functional
[15] = system: Huh-7; test: Induction of cell cycle arrest in human Huh-7 cells assessed as accumulation of cells at sub G1 phase at 10 uM incubated for 24 hrs by FACscan flow cytometer analysis relative to control; assay type: functional
[16] = system: Huh-7; test: Induction of cell cycle arrest in human Huh-7 cells assessed as accumulation of cells at G1 phase at 10 uM incubated for 24 hrs by FACscan flow cytometer analysis (reference value: 39.68%); assay type: functional
[17] = system: Huh-7; test: Induction of cell cycle arrest in human Huh-7 cells assessed as accumulation of cells at S phase at 10 uM incubated for 24 hrs by FACscan flow cytometer analysis (reference value: 41.7%); assay type: functional
[18] = system: Huh-7; test: Induction of cell cycle arrest in human Huh-7 cells assessed as accumulation of cells at G2 phase at 10 uM incubated for 24 hrs by FACscan flow cytometer analysis (reference value: 25.74%); assay type: functional
[19] = molecular target: T1, Histone deacetylase (Homo sapiens) (UniProt Q13547+O15379+Q9UBN7+Q92769+Q9UQL6+Q8WUI4+Q9BY41+Q96DB2+P56524+Q9UKV0+Q969S8); test: Inhibition of HDAC in human Huh-7 cells assessed as increase in histone H3 acetylation at 20 uM incubated for 24 hrs by Western blot analysis; assay type: cell-based
[20] = molecular target: T1, Histone deacetylase (Homo sapiens); test: Inhibition of HDAC in human HepG2 cells assessed as increase in histone H3 acetylation at 20 uM incubated for 24 hrs by Western blot analysis; assay type: cell-based
[21] = system: Huh-7; test: Antiproliferative activity against human Huh-7 cells incubated for 48 hrs by CCK8 method; assay type: functional, cell-based; conditions: Huh-7, 48 h
[22] = system: HepG2; test: Antiproliferative activity against human HepG2 cells incubated for 48 hrs by CCK8 method; assay type: functional, cell-based; conditions: HepG2, 48 h
[23] = system: HT-29; test: Antiproliferative activity against human HT-29 cells incubated for 48 hrs by CCK8 method; assay type: functional, cell-based; conditions: HT-29, 48 h
[24] = Cytotoxicity activity against human HEK293T cells incubated for 48 hrs by CCK8 method; assay type: toxicity, cell-based, HEK-293T
[25] = Drug uptake in human Huh-7 cells assessed as cell penetration incubated for 24 hrs by flow cytometry analysis; assay type: ADME, cell-based; conditions: huh-7, 24 h
[26] = Drug localization in human Huh-7 cells incubated for 24 hrs by DAPI staining based microscopy analysis; assay type: ADME, cell-based; conditions: huh-7, 24 h
[27] = system: Huh-7; test: Anticancer activity in human Huh-7 cells assessed as change in BCL2L11gene expression by KEGG analysis; assay type: functional, cell-based
[28] = system: Huh-7; test: Anticancer activity in human Huh-7 cells assessed as change in WNT6 gene expression by KEGG analysis; assay type: functional, cell-based
[29] = system: Huh-7; test: Anticancer activity in human Huh-7 cells assessed as change in BMP4 gene expression by KEGG analysis; assay type: functional, cell-based
[30] = system: Huh-7; test: Anticancer activity in human Huh-7 cells assessed as change in JAK2 gene expression by KEGG analysis; assay type: functional, cell-based
[31] = system: Huh-7; test: Anticancer activity in human Huh-7 cells assessed as change in BMP2 gene expression by KEGG analysis; assay type: functional, cell-based
[32] = system: Huh-7; test: Anticancer activity in human Huh-7 cells assessed as change in TP53 gene expression by KEGG analysis; assay type: functional, cell-based
[33] = Stability in mouse serum measured upto 24 hrs by LC/MS analysis; assay type: ADME, cell-free
[34] = system: Huh-7; test: Induction of apoptosis in human Huh-7 cells assessed as viable cells at 20 uM incubated for 24 hrs by FITC Annexin V/propidium iodide staining based flow cytometry analysis (reference value: 92.6%); assay type: functional; conditions: read-out: Activity
[35] = system: Huh-7; test: Induction of apoptosis in human Huh-7 cells assessed as early apoptotic cells at 20 uM incubated for 24 hrs by FITC Annexin V/propidium iodide staining based flow cytometry analysis (reference value: 1.85%); assay type: functional
[36] = system: Huh-7; test: Induction of apoptosis in human Huh-7 cells assessed as late apoptotic cells at 20 uM incubated for 24 hrs by FITC Annexin V/propidium iodide staining based flow cytometry analysis (reference value: 5.19%); assay type: functional
[37] = system: Huh-7; test: Induction of apoptosis in human Huh-7 cells assessed as necrotic cells at 20 uM incubated for 24 hrs by FITC Annexin V/propidium iodide staining based flow cytometry analysis (reference value: 0.401%); assay type: functional
[38] = system: Huh-7; test: Induction of cell cycle arrest in human Huh-7 cells assessed as accumulation of cells at sub G1 phase at 20 uM incubated for 24 hrs by FACscan flow cytometer analysis relative to control; assay type: functional
[39] = system: Huh-7; test: Induction of cell cycle arrest in human Huh-7 cells assessed as accumulation of cells at G1 phase at 20 uM incubated for 24 hrs by FACscan flow cytometer analysis (reference value: 39.68%); assay type: functional
[40] = system: Huh-7; test: Induction of cell cycle arrest in human Huh-7 cells assessed as accumulation of cells at S phase at 20 uM incubated for 24 hrs by FACscan flow cytometer analysis (reference value: 41.7%); assay type: functional
[41] = system: Huh-7; test: Induction of cell cycle arrest in human Huh-7 cells assessed as accumulation of cells at G2 phase at 20 uM incubated for 24 hrs by FACscan flow cytometer analysis (reference value: 25.74%); assay type: functional
[42] = molecular target: T1, Histone deacetylase (Homo sapiens); test: Inhibition of HDAC in human Huh-7 cells assessed as increase in histone H3 acetylation at 20 to 40 uM incubated for 24 hrs by Western blot analysis; assay type: cell-based; conditions: dose 20-40 µM
[43] = molecular target: T1, Histone deacetylase (Homo sapiens); test: Inhibition of HDAC in human HepG2 cells assessed as increase in histone H3 acetylation at 20 to 40 uM incubated for 24 hrs by Western blot analysis; assay type: cell-based; conditions: dose 20-40 µM

SMILES	IC50 [9] [µM]	inhibition [19]	inhibition [20]	IC50 [21] [µM]	IC50 [22] [µM]	IC50 [23] [µM]	viability at 10 µM [11] [%]	Activity [12] [%]	Activity [13] [%]	Activity [14] [%]	Activity [15] [%]	Activity [16] [%]	Activity [17] [%]	Activity [18] [%]	other results
O=C(CCCCCCC(=O)Nc1ccccc1)NO [VORINOSTAT]	–	–	–	–	–	–	–	–	–	–	–	–	–	–	viability at 5 µM [1]: 47.2%; Activity [2]: 6.4%; Activity [3]: 37%; Activity [4]: 9.35%; Activity [5]: 7.16%; Activity [6]: 46.95%; Activity [7]: 25.97%; Activity [8]: 18.46%
CSCC[C@H](NC(=O)[C@H](CCCNC(=N)N)NC(=O)[C@H](CC(C)C)NC(=O)[C@H](CCCNC(=N)N)NC(=O)[C@H](CCSC)NC(=O)[C@H](CC(C)C)NC(=O)[C@H](CCCNC(=N)N)NC(=O)[C@H](CC(C)C)NC(=O)[C@H](CC(C)C)NC(=O)[C@H](CCCNC(=N)N)NC(C)=O)C(=O)N[C@@H](CC(C)C)C(=O)N[C@@H](CC(C)C)C(=O)N[C@@H](CCCNC(=N)N)C(=O)N[C@@H](CC(C)C)C(=O)NCCCCCC(=O)NO (Ac-RLLRLMRLRMLLRL[Ahx]-{NHOH})	0.446	Active	Active	28.1	34	42.6	75	5.46	16.5	3.03	10.82	47.63	37.76	9.53	IC50 at 48 h [24]: 39.8 µM; Drug uptake [25]: Active; Drug uptake [26]: Active

Now from value to compound, other results behind:

IC50 [9] [µM]	inhibition [19]	inhibition [20]	IC50 [21] [µM]	IC50 [22] [µM]	IC50 [23] [µM]	SMILES	viability at 10 µM [11] [%]	Activity [12] [%]	Activity [13] [%]	Activity [14] [%]	Activity [15] [%]	Activity [16] [%]	Activity [17] [%]	Activity [18] [%]	other results
> 100	inactive	inactive	–	–	–	CSCC[C@H](NC(=O)[C@H](CCCNC(=N)N)NC(=O)[C@H](CC(C)C)NC(=O)[C@H](CCCNC(=N)N)NC(=O)[C@H](CCSC)NC(=O)[C@H](CC(C)C)NC(=O)[C@H](CCCNC(=N)N)NC(=O)[C@H](CC(C)C)NC(=O)[C@H](CC(C)C)NC(=O)[C@H](CCCNC(=N)N)NC(C)=O)C(=O)N[C@@H](CC(C)C)C(=O)N[C@@H](CC(C)C)C(=O)N[C@@H](CCCNC(=N)N)C(=O)N[C@@H](CC(C)C)C(N)=O (Ac-RLLRLMRLRMLLRL-NH2)	69.6	3.93	21.1	5.39	6.9	58.07	36.8	6.43	Activity [10]: Toxic
0.31	–	–	43.7	52.2	54.6	CC(=O)N[C@@H](CCCNC(=N)N)C(=O)N[C@@H](CC(C)C)C(=O)N[C@@H](CC(C)C)C(=O)N[C@@H](CCCNC(=N)N)C(=O)N[C@@H](CC(C)C)C(=O)N[C@H]1CC[S+](C)Cc2cccc(c2)C[S+](C)CC[C@@H](C(=O)N[C@@H](CC(C)C)C(=O)N[C@@H](CC(C)C)C(=O)N[C@@H](CCCNC(=N)N)C(=O)N[C@@H](CC(C)C)C(=O)NCCCCCC(=O)NO)NC(=O)[C@H](CCCNC(=N)N)NC(=O)[C@H](CC(C)C)NC(=O)[C@H](CCCNC(=N)N)NC1=O (some centres undefined)	–	–	–	–	–	–	–	–	Activity [27]: Active; Activity [28]: Active; Activity [29]: Active; Activity [30]: Active; Activity [31]: Active; Activity [32]: Active; Stability [33]: Stable; viability at 20 µM [34]: 73%; Activity [35]: 4.97%; Activity [36]: 18.2%; Activity [37]: 3.89%; Activity [38]: 2.98%; Activity [39]: 51.86%; Activity [40]: 33.25%; Activity [41]: 17.34%; inhibition [42]: Active; inhibition [43]: Active
> 100	–	–	–	–	–	CC(=O)N[C@@H](CCCNC(=N)N)C(=O)N[C@@H](CC(C)C)C(=O)N[C@@H](CC(C)C)C(=O)N[C@@H](CCCNC(=N)N)C(=O)N[C@@H](CC(C)C)C(=O)N[C@H]1CC[S+](C)Cc2cccc(c2)C[S+](C)CC[C@@H](C(=O)N[C@@H](CC(C)C)C(=O)N[C@@H](CC(C)C)C(=O)N[C@@H](CCCNC(=N)N)C(=O)N[C@@H](CC(C)C)C(=O)O)NC(=O)[C@H](CCCNC(=N)N)NC(=O)[C@H](CC(C)C)NC(=O)[C@H](CCCNC(=N)N)NC1=O (some centres undefined)	–	–	–	–	–	–	–	–	–
